Reference: US8080582B2, “Derivatives of 8-epiblechnic acid and their effects on down-regulation of endothelin (ETA) receptor mRNA” (ScinoPharm Taiwan Ltd., priority 2008, dated 2011)
Entries after “also recorded” stand apart in the source; their conditions may differ.

Key:
Type in all cases: cell-based
[1] = tested on: PC-3 cancer cells; assay: Flow cytometry cell cycle analysis (sub-G1, apoptosis) of PC-3 cells; settings: PC-3, 0.01 mM, 48 hrs, PI flow cytometry; control around 1.18%
Description: After suspending cells, the precooled 70% ethanol was used for fixing the cells. After centrifuging the mixture for 10 min. at 3,000 rpm, supernatant liquid was removed. Propidium iodide (PI) buffer (0.1% Triton X-100, 0.2 μg/ml RNase A, 40 μg/ml PI) was added, and then the solution was kept still at 37° C. for 30 min. After that, the cell cycle analysis was conducted by flow cytometry.
Flow cytometry was used to determine whether Sal-B and its analogs induced apoptosis in cancer cells. After treating PC-3 cancer cells with 0.4 mM Sal-B and EBA, and 0.01 mM compounds B and A for 48 hrs, the cells were collected and allowed to react with PI buffer for 30 min. Flow cytometry was then employed to measure the cell cycle. Approximately 5.16% of PC-3 cancer cells were at sub-G1 phase after treating with Sal-B, roughly 5.27% were at sub-G1 phase after treating with compound B, and roughly 8.54% were at sub-G1 phase after treating with compound A. However, for the control, only around 1.18% of the cells were at sub-G1 phase. Therefore, Sal-B and its analogs (compounds B and A) thus caused a significant increase in the percentage of cells at sub-G1 phase.

[2] = tested on: normal mammary gland cell line (A1N4); assay: Cytotoxicity test on normal mammary gland cells; settings: A1N4 normal mammary gland cells, FIG. 2
Description: (§1) The cells (1×10^5 cells/well in 24-well plates) were cultured for 24 hrs. Different concentrations of Sal-B and its analogs (0, 50, 100, 150, 200, 250 μg/ml) were added to treat the cells. After treating for 48 hrs, 100 μl MTT solution was added to each well, and the plate was placed in an incubator for 1-4 hrs. After adding 400 μl DMSO to treat the cells for 30 min., 200 μl samples were collected and placed in a 96-well plate to conduct the absorption measurement at 550 nm.

[3] = tested on: Vascular smooth muscle cells (cell line A10); assay: MTT cell viability / observation of normal vascular smooth muscle cells (A10); settings: 48 hrs; for Precipitation in the treated sample: dissolved in DMSO, added to A10 cells, 0.2 mM
Description: as §1
Cell viability testing (MTT testing) was employed to determine the cytotoxicity of Sal-B and EBA to vascular smooth muscle cells. Vascular smooth muscle cells (cell line A10) were treated with Sal-B and EBA at concentrations of 0, 0.1, 0.2, 0.3, 0.4, and 0.5 mM. After treating for 48 hrs, MTT was added and allowed to react for 3 hrs at 37° C. Then, DMSO was added and allowed to react for 30 min., after that, the OD570 absorption values were measured. Cell viability was still 90% when the drug concentration reached 0.2 mM.
Sal-B's analogs, compounds A to F, were dissolved in DMSO, and then added to A10 cells to observe the results.

[4] = tested on: ETAR mRNA expression; assay: Real-time quantitative RT-PCR of ETAR mRNA in smooth muscle cells (A10); settings: A10 smooth muscle cells, 0.2 mM, 48 hrs, vs DMSO control, FIG. 4, read-out: ETAR mRNA remaining after the treatment
Description: Extraction of cellular RNA: Subculturing smooth muscle cells to 100-mm culture dishes. After the cells had filled the culture dishes, Sal-B and its analogs were added to treat the cells for 48 hrs. After that, 1×PBS solutions were added to wash the cells three times. After adding 1 ml TRIzol, the cells were scraped off and placed in 1.5 ml micro-centrifuge tubes. Following the addition of 0.2 ml chloroform to each tube, the tubes were shaken, left at room temperature for 3 min., and run in a centrifuge at 12,000 rpm for 15 min. The supernatant liquid was removed and the cells placed in new micro-centrifuge tubes. After adding an amount of isopropyl alcohol equivalent to one-half of the volume of the supernatant liquid, and mixing until homogeneous, the samples were allowed to stand at room temperature for 10 min. The supernatant liquid was removed after centrifugation at 12,000 rpm for 10 min. 1 ml 70% alcohol was added to wash out salts, followed by centrifugation for 5 min. and removal of supernatant liquid. The samples were dissolved in 50 μl DEPC-H2O after drying.
(1) cDNA synthesis: 1 μl Random hexamer primer (20 μM) and 1 μl dNTP(10 mm) were added to 3 μg RNA, which was allowed to react at 65° C. for 5 min., and then placed on ice promptly. After the addition of 2 μl 10× reaction buffer, 0.5 μl RNaseOUT (40 unit/μl) and 1 μl SuperScript III RT (200 unit/μl), the solution was mixed until homogeneous, and allowed to react at 50° C. for 50 min. After that, the mixture was heated to 85° C. for 5 min. to terminate the enzymatic reaction. The samples were preserved at −70° C. for later use.
(2) PCR quantitative analysis: After adding 7.5 μl PCR primer mix (400 nm each) and 15 μl SYBR Green dye reagent to the 7.5 μl cDNA template, the solution was placed in Bio-Rad's iCycler for PCR reaction. The resulting data was inputted into Gene Expression Analysis for iCycler iQ Real-Time PCR Detection System for quantitative analysis of gene expression.
Furthermore, after treating vascular smooth muscle cells with 100 μg/ml of either Sal-B or EBA for 48 hrs, the identical concentrations of cellular whole RNA were sampled for the synthesis of cDNA by using reverse transcriptase. The PCR method was employed to determine the amounts of endothelin receptor mRNA expression. […] For the analysis of ETAR mRNA expression by using the real-time PCR method, vascular smooth muscle cells at full confluence 100-mm culture dishes were treated with 100 μg/ml of either Sal-B or EBA for 48 hrs. The identical concentrations of cellular whole RNA were sampled for the synthesis of cDNA by using reverse transcriptase. The real-time PCR method was used to compare the amounts of ETAR mRNA expression.
The different analogs, compounds A to F, had different effects on ETAR mRNA expression. The control group represented treating smooth muscle cells (A10) with DMSO, and the positive control group represented treating the cells with Sal-B. The smooth muscle cells were treated with 0.2 mM Sal-B and compounds A to F for 48 hrs. The identical concentrations of cellular RNA were sampled for the synthesis of cDNA by using reverse transcriptase. The real-time PCR method was employed to determine the amounts of ETAR mRNA expression. Compared with the control group, compound B had the least effect on down-regulating ETAR mRNA expression, as approximately 50% of the ETAR mRNA remained after the treatment. […]

[5] = tested on: nasopharyngeal cancer cells (Hone-1); assay: MTT cell viability, nasopharyngeal cancer cells; settings: Hone-1 cells, summary statement
Description: as §1
(§2) Cancer cells were treated with Sal-B and EBA at concentrations of 0, 0.1, 0.2, 0.3, 0.4, 0.5 mM. After treating for 48 hrs, MTT was added, and then allowed to react for 3 hrs at 37° C. After that, DMSO was added and allowed to react for 30 min., the OD570 absorption values were measured. Cell viability was above 80% when nasopharyngeal cancer cells (Hone-1) were treated with […] Sal-B and EBA. […] But the cell viability remained above 70% for treating with 0.1 mM and 0.2 mM EBA. Similar results were obtained when prostate cancer cells (PC-3) were treated with the drugs: Cell viability was above 80% for treating PC-3 cells with 0.2 mM Sal-B or EBA.

[6] = tested on: prostate cancer cells (PC-3); assay: MTT cell viability, prostate cancer cells; settings: for Viability of PC-3 cells as the concentration is increased: PC-3, MTT, increasing concentration, FIG. 1
Description: as §1, §2
MTT testing was employed to observe the viability of cancer cells after treating with Sal-B and the six synthetic analogs.

| SMILES | PC-3 cancer cells at sub-G1 phase [1] | Cytotoxicity to normal cells [2] | Cytotoxicity / cell death in A10 cells ([3]; A10 cells, 0.2 mM in DMSO) | mrna remaining at 200 µM [4] [%] | Inhibition of growth of Hone-1 cells [5] | Viability of PC-3 cells as the concentration is increased [6] | Toxicity to PC-3 cells relative to Sal-B ([6]; PC-3 cells, compared with Sal-B) | Precipitation in the treated sample [3] |
| --- | --- | --- | --- | --- | --- | --- | --- | --- |
| COC(=O)C(Cc1ccc(OC)c(OC)c1)NC(=O)/C=C/c1ccc(OC)c2c1C(C(=O)NC(Cc1ccc(OC)c(OC)c1)C(=O)OC)C(c1ccc(OC)c(OC)c1)O2 (stereo not drawn) [Compound A, 2-(3,4-dimethoxyphenyl)-7-methoxy-4-{(E)-2-[1-(methoxycarbonyl)-2-(3,4-dimethoxyphenyl)-ethylcarbamoyl]-vinyl}-2,3-dihydro-benzofuran-3-carboxylic acid-1-(methoxycarbonyl)-[2-(3,4-dimethoxyphenyl)-ethyl]-amide] | roughly 8.54% | low toxicity to normal cells | high level of cell death; also recorded: relatively high cytotoxicity | < 20 | significantly inhibit the growth | led to the similar results | ten times more toxic to PC-3 cells than Sal-B | – |
| COC(=O)C(Cc1ccccc1)NC(=O)/C=C/c1ccc(OC)c2c1C(C(=O)NC(Cc1ccc(OC)c(OC)c1)C(=O)OC)C(c1ccc(OC)c(OC)c1)O2 (stereo not drawn) [Compound B, 2-(3,4-dimethoxyphenyl)-7-methoxy-4-{(E)-2-[1-(methoxycarbonyl)-2-phenyl-ethylcarbamoyl]-vinyl}-2,3-dihydro-benzofuran-3-carboxylic acid-1(methoxycarbonyl)-[2-(3,4-dimethoxyphenyl)-ethyl]-amide] | roughly 5.27% | relatively toxic to normal cells | – | ~50 | significantly inhibit the growth | led to the similar results | – | significant precipitation |
| COC(=O)C(Cc1ccc(OC)c(OC)c1)NC(=O)/C=C/c1cc(OC)c2c(c1)C(C(=O)NC(Cc1ccc(OC)c(OC)c1)C(=O)OC)C(c1ccc(OC)c(OC)c1)O2 (stereo not drawn) [Compound C, 2-(3,4-dimethoxyphenyl)-7-methoxy-5-{(E)-2-[1-(methoxycarbonyl)-2-(3,4-dimethoxyphenyl)-ethylcarbamoyl]-vinyl}-2,3-dihydro-benzofuran-3-carboxylic acid-1-(methoxycarbonyl)-[2-(3,4-dimethoxyphenyl)-ethyl]-amide] | – | – | – | < 20 | – | – | – | – |
| COC(=O)C1Cc2cc(OC)c(OC)cc2CN1C(=O)/C=C/c1cc(OC)c2c(c1)C(C(=O)N1Cc3cc(OC)c(OC)cc3CC1C(=O)OC)C(c1ccc(OC)c(OC)c1)O2 (stereo not drawn) [Compound E] | – | – | – | – | – | – | – | significant precipitation |
